Where two headings read alike, the source gives them in different places.
What was measured:
[1] = system: KCl-induced contraction of helical blood vessel specimen (artery); assay: Test on calcium antagonizing activity (KCl-induced contraction of helical blood vessel specimen); design: species or system rabbit; conditions: contraction height at 40 mM KCl taken as 100%, 10 minutes after test compound, 37° C., read-out: ED50 (concentration which inhibits the contraction height of the control to an extent of 50%)
Protocol: Female and male rabbits weighing 2 to 3 kg were used. They were anesthetized by intravenous injection of pentobarbital sodium, and sacrificed by bleeding from the femoral arteries. Immediately then, the artery was extracted from the chest, and a helical blood vessel specimen was prepared.

[2] = system: systolic blood pressure, spontaneously hypertensive rats; assay: Antihypertensive activity test; type: in vivo, rat (male spontaneously hypertensive); conditions: oral
From the text: Variations in systolic blood pressure were periodically measured by a programmed electrosphygmomanometer-type blood pressure measuring device (NARCO, PE-300).

Row | Structure (SMILES) | IC50 ([1]; 10 min) [nM] | IC50 ([1]; Oryctolagus cuniculus, 10 min) [nM] | IC50 [1] [nM] | Systolic blood pressure (maximum variation) ([2]; 1 mg/kg) [mmHg] | Systolic blood pressure (maximum variation) ([2]; 3 mg/kg) [mmHg] | Systolic blood pressure (maximum variation) ([2]; 10 mg/kg) [mmHg] | Systolic blood pressure (maximum variation) ([2]; 30 mg/kg) [mmHg]
1 | CCOC(=O)C1=C(C)Nc2snc(CN(C)CCc3ccc(OC)c(OC)c3)c2C1c1cccc([N+](=O)[O-])c1 (centres unmarked) [Ia, ethyl 3-[N-(2-(3,4-dimethoxyphenyl)ethyl)-N-methylaminomethyl]-6-methyl-4-(3-nitrophenyl)-4,7-dihydroisothiazolo[5,4-b]pyridine-5-carboxylate] | – | 60 | – | -6 | -26 | -82 | -119
2 | CCOC(=O)C1=C(C)Nc2snc(CN(C)CCCOc3cccc(OC)c3)c2C1c1cccc([N+](=O)[O-])c1 (centres unmarked) [Ib, ethyl 3-[N-(3-(3-methoxyphenoxy)propyl)-N-methylaminomethyl]-6-methyl-4-(3-nitrophenyl)-4,7-dihydroisothiazolo[5,4-b]pyridine-5-carboxylate] | – | 62 | – | – | -30 | -76 | -108
3 | COc1ccc(CCN(C)Cc2nsc3c2C(c2cccc([N+](=O)[O-])c2)C(C(=O)OCCN(C)Cc2ccccc2)=C(C)N3)cc1OC (centres unmarked) [Ic, 2-(N-benzyl-N-methylamino)ethyl 3-[N-(2-(3,4-dimethoxyphenyl)ethyl)-N-methylaminomethyl]-6-methyl-4-(3-nitrophenyl)-4,7-dihydroisothiazolo[5,4-b]pyridine-5-carboxylate] | – | 225 | – | – | -37 | -92 | -135
4 | CC1=C(C(=O)OCCN(C)Cc2ccccc2)C(c2cccc([N+](=O)[O-])c2)c2c(CN3CCN(c4ccc(F)cc4)CC3)nsc2N1 (centres unmarked) [Id, 2-(N-benzyl-N-methylamino)ethyl 3-[4-(4-fluorophenyl)-1-piperazinylmethyl]-6-methyl-4-(3-nitrophenyl)-4,7-dihydroisothiazolo[5,4-b]pyridine-5-carboxylate] | – | > 300 | – | -30 | -65 | -132 | -142
5 | COC(=O)C1=C(C)NC(C)=C(C(=O)OC)C1c1ccccc1[N+](=O)[O-] [Nifedipine, reference compound] | – | 19.6 | – | -29 | -42 | -71 | –

Further lines, with some results ahead:

Row | IC50 ([1]; 10 min) [nM] | IC50 ([1]; Oryctolagus cuniculus, 10 min) [nM] | IC50 [1] [nM] | Structure (SMILES) | Systolic blood pressure (maximum variation) ([2]; 1 mg/kg) [mmHg] | Systolic blood pressure (maximum variation) ([2]; 3 mg/kg) [mmHg] | Systolic blood pressure (maximum variation) ([2]; 10 mg/kg) [mmHg] | Systolic blood pressure (maximum variation) ([2]; 30 mg/kg) [mmHg]
6 | > 300 | – | – | CCOC(=O)C1=C(C)Nc2snc(CCN3CCN(c4ccccc4)CC3)c2C1c1cccc([N+](=O)[O-])c1 (single isomer, unassigned; (+)) [Ig, (+)-ethyl 3-[2-(4-phenyl-1-piperazinyl)ethyl]-6-methyl-4-(3-nitrophenyl)-4,7-dihydroisothiazolo[5,4-b]pyridine-5-carboxylate] | – | – | – | –
7 | 25 | – | – | CCOC(=O)C1=C(C)Nc2snc(CCN3CCN(c4ccccc4)CC3)c2C1c1cccc([N+](=O)[O-])c1 (single isomer, unassigned; (-)) [Ih, (-)-ethyl 3-[2-(4-phenyl-1-piperazinyl)ethyl]-6-methyl-4-(3-nitrophenyl)-4,7-dihydroisothiazolo[5,4-b]pyridine-5-carboxylate] | -36 | -93 | -137 | –
8 | – | 33 | – | CCOC(=O)C1=C(C)Nc2snc(CCN3CCN(c4ccccc4)CC3)c2C1c1cccc([N+](=O)[O-])c1 (centres unmarked) [Ie, ethyl 3-[2-(4-phenyl-1-piperazinyl)ethyl]-6-methyl-4-(3-nitrophenyl)-4,7-dihydroisodithiazolo[5,4-b]pyridine-5-carboxylate] | -41 | -51 | -101 | –
9 | – | – | 63.8 | CCOC(=O)C1=C(C)Nc2snc(CCN3CCN(c4ccc(F)cc4)CC3)c2C1c1cccc([N+](=O)[O-])c1 (centres unmarked) [If, ethyl 3-[2-(4-(4-fluorophenyl)-1-piperazinyl)ethyl]-6-methyl-4-(3-nitrophenyl)-4,7-dihyhdroisothiazolo[5,4-b]pyridine-5-carboxylate] | -47 | -54 | -102 | –

Reference: US4874760A, “4,7-dihydroisothiazolo(5,4-b)pyridine derivatives and cardiovascular treating agents containing said derivatives” (Toa Eiyo, Ltd., priority 1987, dated 1989)
